Reference: ChEMBL document CHEMBL4257544, “Synthesis and biological evaluation of novel asymmetric naphthalene diimide derivatives as anticancer agents depending on ROS generation” (Medchemcomm, 2018)
Activity calls are given as the source filed them. The rule behind the calls is not given here.

Tests used:
HepG2 [1] = experiment: Induction of apoptosis in human HepG2 cells after 24 hrs by acridine orange/ethidium bromide and Hoechst 33342 staining based HCS analysis; type: functional, cell-based
HepG2 [2] = experiment: Cytotoxicity against human HepG2 cells after 48 hrs by MTT assay; type: functional, cell-based; conditions: HepG2, 48 h
SMMC-7721 [3] = experiment: Cytotoxicity against human SMMC7721 cells after 48 hrs by MTT assay; type: functional, cell-based; conditions: SMMC-7721, 48 h
MDA-MB-231 = experiment: Cytotoxicity against human MDA-MB-231 cells after 48 hrs by MTT assay; type: functional, cell-based; conditions: MDA-MB-231, 48 h
MCF7 = experiment: Cytotoxicity against human MCF7 cells after 48 hrs by MTT assay; type: functional, cell-based; conditions: MCF7, 48 h
HCT-116 = experiment: Cytotoxicity against human HCT116 cells after 48 hrs by MTT assay; type: functional, cell-based; conditions: HCT-116, 48 h
HepG2 [4] = experiment: Potency index, ratio of amonafide IC50 to compound IC50 for cytotoxicity against human HepG2 cells; type: functional
SMMC-7721 [5] = experiment: Potency index, ratio of amonafide IC50 to compound IC50 for cytotoxicity against human SMMC7721 cells; type: functional
HepG2 [6] = experiment: Cytotoxicity against human HepG2 cells after 24 hrs by MTT assay; type: functional, cell-based; conditions: HepG2, 24 h
[7] = Cytotoxicity against human QSG7701 cells after 48 hrs by MTT assay; type: cell-based; conditions: QSG7701, 48 h
SMMC-7721 [8] = experiment: Cytotoxicity against human SMMC7721 cells assessed as cell rounding after 24 hrs; type: functional, cell-based
SMMC-7721 [9] = experiment: Cytotoxicity against human SMMC7721 cells assessed as reduction in cell volume after 24 hrs; type: functional, cell-based
HepG2 [10] = experiment: Induction of apoptosis in human HepG2 cells after 24 hrs by Annexin V/propidium iodide staining based flow cytometry; type: functional, cell-based
SMMC-7721 [11] = experiment: Induction of apoptosis in human SMMC7721 cells after 24 hrs by Annexin V/propidium iodide staining based flow cytometry; type: functional, cell-based
SMMC-7721 [12] = experiment: Induction of apoptosis in human SMMC7721 cells at 3 uM after 48 hrs by Annexin V/propidium iodide staining based flow cytometry relative to control; type: functional
HepG2 [13] = experiment: Induction of apoptosis in human HepG2 cells assessed as increase in cleaved PARP1 protein expression at 1 to 3 uM after 24 hrs by Western blot analysis; type: functional, cell-based
SMMC-7721 [14] = experiment: Induction of apoptosis in human SMMC7721 cells assessed as increase in cleaved PARP1 protein expression at 1 to 3 uM after 24 hrs by Western blot analysis; type: functional, cell-based
SMMC-7721 [15] = experiment: Induction of apoptosis in human SMMC7721 cells assessed as decrease in Bcl2 protein expression at 1 to 3 uM after 24 hrs by Western blot analysis; type: functional, cell-based
HepG2 [16] = experiment: Induction of apoptosis in human HepG2 cells assessed as increase in caspase-8 activation at 1 to 3 uM after 24 hrs by Western blot analysis; type: functional, cell-based
HepG2 [17] = experiment: Induction of apoptosis in human HepG2 cells assessed as increase in p53 protein expression at 1 to 3 uM after 24 hrs by Western blot analysis; type: functional, cell-based
SMMC-7721 [18] = experiment: Induction of apoptosis in human SMMC7721 cells assessed as increase in p53 protein expression at 1 to 3 uM after 24 hrs by Western blot analysis; type: functional, cell-based
HepG2 [19] = experiment: Induction of autophagy in human HepG2 cells assessed as vacuolization after 12 hrs; type: functional, cell-based
SMMC-7721 [20] = experiment: Induction of autophagy in human SMMC7721 cells assessed as vacuolization after 12 hrs; type: functional, cell-based
SMMC-7721 [21] = experiment: Induction of autophagy in human SMMC7721 cells assessed as autophagosome formation at 2 uM after 12 hrs by transmission electron microscopic method; type: functional, cell-based
HepG2 [22] = experiment: Induction of autophagy in human HepG2 cells assessed as increase in LC3-2 level by Western blot analysis; type: functional, cell-based
SMMC-7721 [23] = experiment: Induction of autophagy in human SMMC7721 cells assessed as increase in BECN1 level at 1 to 3 uM by Western blot analysis; type: functional, cell-based
HepG2 [24] = experiment: Induction of autophagy in human HepG2 cells assessed as increase in BECN1 level at 1 to 3 uM by Western blot analysis; type: functional, cell-based
SMMC-7721 [25] = experiment: Induction of autophagy in human SMMC7721 cells assessed as decrease in p62 level at 1 to 3 uM by Western blot analysis; type: functional, cell-based
HepG2 [26] = experiment: Cytotoxicity against human HepG2 cells assessed as reduction in cell viability in presence of autophagy inhibitor 3-MA by MTT assay; type: functional, cell-based
SMMC-7721 [27] = experiment: Cytotoxicity against human SMMC7721 cells assessed as reduction in cell viability in presence of autophagy inhibitor 3-MA by MTT assay; type: functional, cell-based
HepG2 [28] = experiment: Induction of ROS generation in human HepG2 cells at 1 to 3 uM after 24 hrs by DCFH-DA staining based HCS analysis; type: functional, cell-based
HepG2 [29] = experiment: Induction of ROS generation in human HepG2 cells at 1 to 3 uM after 24 hrs in presence of antioxidant alpha-tocopherol by DCFH-DA staining based HCS analysis; type: functional, cell-based
SMMC-7721 [30] = experiment: Induction of ROS generation in human SMMC7721 cells at 1 to 3 uM after 24 hrs in presence of antioxidant alpha-tocopherol by DCFH-DA staining based HCS analysis; type: functional, cell-based
SMMC-7721 [31] = experiment: Cytotoxicity against human SMMC7721 cells assessed as reduction in cell viability treated at 1 hr post antioxidant alpha-tocopherol addition by MTT assay; type: functional, cell-based
HepG2 [32] = experiment: Cytotoxicity against human HepG2 cells assessed as morphological changes treated at 1 hr post antioxidant alpha-tocopherol addition and measured after 24 hrs; type: functional, cell-based
HepG2 [33] = experiment: Induction of apoptosis in human HepG2 cells treated at 1 hr post antioxidant alpha-tocopherol addition and measured after 24 hrs by Annexin V/propidium iodide staining based flow cytometry; type: functional, cell-based
SMMC-7721 [34] = experiment: Induction of apoptosis in human SMMC7721 cells treated at 1 hr post antioxidant alpha-tocopherol addition and measured after 24 hrs by Annexin V/propidium iodide staining based flow cytometry; type: functional, cell-based
HepG2 [35] = experiment: Induction of apoptosis in human HepG2 cells assessed as increase in p53 protein expression treated at 1 hr post antioxidant alpha-tocopherol addition and measured after 24 hrs by Western blot analysis; type: functional, cell-based
SMMC-7721 [36] = experiment: Induction of apoptosis in human SMMC7721 cells assessed as increase in cleaved PARP1 protein expression treated at 1 hr post antioxidant alpha-tocopherol addition and measured after 24 hrs by Western blot analysis; type: functional, cell-based
HepG2 [37] = experiment: Antimigratory activity against human HepG2 cells at 1 to 3 uM after 24 hrs by crystal violet staining based transwell migration assay; type: functional, cell-based
SMMC-7721 [38] = experiment: Downregulation of beta-catenin protein expression in human SMMC7721 cells at 1 to 3 uM after 24 hrs by Western blot analysis; type: functional, cell-based
SMMC-7721 [39] = experiment: Downregulation of Akt phosphorylation at […] residue in human SMMC7721 cells at 1 to 3 uM after 24 hrs by Western blot analysis; type: functional, cell-based
HepG2 [40] = experiment: Antimigratory activity against human HepG2 cells treated at 1 hr post antioxidant alpha-tocopherol addition and measured after 24 hrs by scratch wound healing assay; type: functional, cell-based
SMMC-7721 [41] = experiment: Downregulation of beta-catenin protein expression in human SMMC7721 cells treated at 1 hr post antioxidant alpha-tocopherol addition and measured after 24 hrs by Western blot analysis; type: functional, cell-based

In the case of `CCCCN1C(=O)c2ccc3c4c(ccc(c24)C1=O)C(=O)N(CCCN(C)C)C3=O`, the Activity (HepG2 [1]) is reported as “Dose-dependent effect”, the IC50 (HepG2 [2]) is reported as 1.48 µM and the IC50 (SMMC-7721 [3]) is reported as 1.7 µM. The IC50 (MDA-MB-231) was 5.79 µM, the IC50 (MCF7) was 5.15 µM and the IC50 (HCT-116) was 14.7 µM. For the same compound, the “Ratio IC50” value (HepG2 [4]) was 5, the “Ratio IC50” value (SMMC-7721 [5]) was 5 and the IC50 (HepG2 [6]) was 4.29 µM. The IC50 [7] was 7.11 µM, the Activity (SMMC-7721 [8]) was “Active” and the Activity (SMMC-7721 [9]) was “Active”. The Activity (HepG2 [10]) was “Dose-dependent effect”, the Activity (SMMC-7721 [11]) was “Dose-dependent effect” and the Activity (SMMC-7721 [12]) was 52.1%. The Activity (HepG2 [13]) was “Active”, the Activity (SMMC-7721 [14]) was “Active” and the Activity (SMMC-7721 [15]) was “Active”. The Activity (HepG2 [16]) was “Active”, the Activity (HepG2 [17]) was “Active” and the Activity (SMMC-7721 [18]) was “Active”. The Activity (HepG2 [19]) was “Active”, the Activity (SMMC-7721 [20]) was “Active” and the Activity (SMMC-7721 [21]) was “Active”. The Activity (HepG2 [22]) was “Dose-dependent effect”, the Activity (SMMC-7721 [23]) was “Active” and the Activity (HepG2 [24]) was “Active”. For the same compound, the Activity (SMMC-7721 [25]) was “Active”, the Activity (HepG2 [26]) was “inactive” and the Activity (SMMC-7721 [27]) was “inactive”. The Activity (HepG2 [28]) was “Active”, the Activity (HepG2 [29]) was “inactive” and the Activity (SMMC-7721 [30]) was “inactive”. For the same compound, the Activity (SMMC-7721 [31]) was “inactive”, the Activity (HepG2 [32]) was “inactive” and the Activity (HepG2 [33]) was “inactive”. The Activity (SMMC-7721 [34]) was “inactive”, the Activity (HepG2 [35]) was “inactive” and the Activity (SMMC-7721 [36]) was “inactive”. The Activity (HepG2 [37]) was “Active”, the Activity (SMMC-7721 [38]) was “Active” and the Activity (SMMC-7721 [39]) was “Active”. The Activity (HepG2 [40]) was “inactive” and the Activity (SMMC-7721 [41]) was “inactive”.
